Laboratory results: patent US9980943B2, “Methods of treating muscular dystrophy” (BOARD OF REGENTS OF THE NEVADA SYSTEM OF HIGHER EDUCATION, …, priority 2013, dated 2018)

Assays:
Type in all cases: cell-based, mouse
[1] = tested on: α7 integrin (LacZ reporter in α7βgal+/− myoblasts); experiment: Myoblast α7+/LacZ integrin FDG assay (Burkin assay in myoblasts, 96-well); conditions: α7+/LacZ myoblasts, 96-well
[2] = tested on: β-galactosidase in CMV-LacZ C2C12 myotubes; experiment: CMV-LacZ secondary screen in C2C12 myotubes (β-Gal stabilizing assay); conditions: C2C12 CMV-LacZ myotubes, fold relative to DMSO
In short: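 First, C2C12 myoblasts were transfected with a linearized CMV-LACZ vector and clonal lines selected by FDG β-gal assay. Then cells were exposed to compounds at 0.5, 1, 5, 10, 20 and 40 μM in 96-well format, two replicates each, and β-gal measured.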

[3] = tested on: β-galactosidase in CMV-LacZ C2C12 myoblasts; experiment: CMV-LacZ secondary screen in C2C12 myoblasts (β-Gal stabilizing assay); conditions: CMV-LacZ C2C12 myoblasts
In short: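 C2C12 myoblasts stably carrying a linearized CMV-driven LacZ construct, clone chosen by β-gal level in the myoblast FDG assay. Compounds tested in 96-well dose-response at 0.5, 1, 5, 10, 20 and 40 μM, N=2 replicates per point, to detect β-gal stabilization.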

[4] = tested on: α7 integrin (LacZ reporter in α7+/LacZ myotubes); experiment: Myotube α7 integrin FDG assay (Burkin assay in myotubes, 96-well); conditions: myotubes

Row | SMILES | Burkin Assay in Myoblasts, signal relative to DMSO ([1]; 0.5 uM) | Burkin Assay in Myoblasts, signal relative to DMSO ([1]; 1 uM) | Burkin Assay in Myoblasts, signal relative to DMSO ([1]; 5 uM) | Burkin Assay in Myoblasts, signal relative to DMSO ([1]; 10 uM) | Burkin Assay in Myoblasts, signal relative to DMSO ([1]; 20 uM) | Burkin Assay in Myoblasts, signal relative to DMSO ([1]; 40 uM) | CMV-LACZ in Myotubes, signal relative to DMSO ([2]; 0.5 uM) | CMV-LACZ in Myotubes, signal relative to DMSO ([2]; 1 uM) | CMV-LACZ in Myotubes, signal relative to DMSO ([2]; 5 uM) | CMV-LACZ in Myotubes, signal relative to DMSO ([2]; 10 uM) | CMV-LACZ in Myotubes, signal relative to DMSO ([2]; 20 uM) | CMV-LACZ in Myotubes, signal relative to DMSO ([2]; 40 uM) | CMV-LACZ in Myoblasts (β-galactosidase activity relative to DMSO) ([3]; 0.5 uM) | CMV-LACZ in Myoblasts (β-galactosidase activity relative to DMSO) ([3]; 1 uM) | CMV-LACZ in Myoblasts (β-galactosidase activity relative to DMSO) ([3]; 5 uM) | CMV-LACZ in Myoblasts (β-galactosidase activity relative to DMSO) ([3]; 10 uM) | CMV-LACZ in Myoblasts (β-galactosidase activity relative to DMSO) ([3]; 20 uM) | CMV-LACZ in Myoblasts (β-galactosidase activity relative to DMSO) ([3]; 40 uM) | Burkin Assay in Myotubes, α7 integrin LacZ reporter signal relative to DMSO ([4]; 0.5 uM) | Burkin Assay in Myotubes, α7 integrin LacZ reporter signal relative to DMSO ([4]; 1 uM) | also measured
1 | O=C(COc1ccc(Cl)cc1)N1CCN(C2CCCC2)CC1.O=C(O)C(=O)O [MLS001221318-01] | 1.118 | 1.283 | 1.01 | 0.9944 | 1.054 | 1.075 | 1.0037 | 1.4059 | 1.1337 | 0.9944 | 1.2212 | 0.8576 | 0.8528 | 1.0538 | 1.0999 | 0.9955 | 1.0181 | 1.5641 | 1.133 | 1.082 | Burkin Assay in Myotubes, α7 integrin LacZ reporter signal relative to DMSO ([4]; 5 uM): 0.9266; Burkin Assay in Myotubes, α7 integrin LacZ reporter signal relative to DMSO ([4]; 10 uM): 0.9591; Burkin Assay in Myotubes, α7 integrin LacZ reporter signal relative to DMSO ([4]; 20 uM): 0.8071; Burkin Assay in Myotubes, α7 integrin LacZ reporter signal relative to DMSO ([4]; 40 uM): 0.7186
2 | O=C(NCc1ccccc1)C(c1c(F)cccc1Cl)N(C(=O)c1csnn1)C1CC1 (stereo not drawn) [MLS001221908-01] | 1.051 | 0.9531 | 0.9306 | 0.8812 | 1.433 | 0.5684 | 0.8562 | 0.9171 | 0.9745 | 1.1838 | 1.0770 | 0.8850 | 0.9663 | 0.7607 | 0.9357 | 0.7908 | 0.9726 | 0.6789 | 1.197 | 0.9589 | Burkin Assay in Myotubes, α7 integrin LacZ reporter signal relative to DMSO ([4]; 5 uM): 0.889; Burkin Assay in Myotubes, α7 integrin LacZ reporter signal relative to DMSO ([4]; 10 uM): 0.9693; Burkin Assay in Myotubes, α7 integrin LacZ reporter signal relative to DMSO ([4]; 20 uM): 0.818; Burkin Assay in Myotubes, α7 integrin LacZ reporter signal relative to DMSO ([4]; 40 uM): 0.7406
3 | O=C(CSc1nnc2c(n1)[nH]c1ccccc12)NCc1ccccc1F [MLS001225512-01] | 1.1596 | 0.9131 | 1.173 | 0.8832 | 1.108 | 1.284 | 1.0162 | 1.0381 | 0.9459 | 1.0077 | 1.2482 | 0.8871 | 0.9597 | 1.0843 | 1.1655 | 1.4266 | 0.8237 | 1.0111 | 0.929 | 1.059 | Burkin Assay in Myotubes, α7 integrin LacZ reporter signal relative to DMSO ([4]; 5 uM): 0.9799; Burkin Assay in Myotubes, α7 integrin LacZ reporter signal relative to DMSO ([4]; 10 uM): 0.8235; Burkin Assay in Myotubes, α7 integrin LacZ reporter signal relative to DMSO ([4]; 20 uM): 0.8431; Burkin Assay in Myotubes, α7 integrin LacZ reporter signal relative to DMSO ([4]; 40 uM): 0.7401
4 | CC(C)c1ccc(NC(=O)CN2C(=O)c3ccccc3S2(=O)=O)cc1 [MLS001229477-01] | 0.8703 | 0.8296 | 1.367 | 0.9454 | 0.9634 | 0.9019 | 1.0126 | 1.1095 | 0.9250 | 0.9587 | 0.9622 | 0.9611 | 1.0283 | 1.1345 | 1.1078 | 1.1311 | 1.0674 | 0.8800 | 0.8015 | 0.9368 | Burkin Assay in Myotubes, α7 integrin LacZ reporter signal relative to DMSO ([4]; 5 uM): 0.9702; Burkin Assay in Myotubes, α7 integrin LacZ reporter signal relative to DMSO ([4]; 10 uM): 0.9015; Burkin Assay in Myotubes, α7 integrin LacZ reporter signal relative to DMSO ([4]; 20 uM): 0.8376; Burkin Assay in Myotubes, α7 integrin LacZ reporter signal relative to DMSO ([4]; 40 uM): 0.8339
5 | CCc1c(C)sc(NC(=O)c2ccco2)c1C#N [MLS001240181-01] | 1.082 | 1.081 | 1.4585 | 1.074 | 1.153 | 1.198 | 0.9519 | 1.0511 | 1.0895 | 0.9955 | 1.0976 | 1.1376 | 0.9550 | 1.0441 | 0.8408 | 1.1645 | 1.0367 | 0.8907 | 1.174 | 1.214 | Burkin Assay in Myotubes, α7 integrin LacZ reporter signal relative to DMSO ([4]; 5 uM): 1.643; Burkin Assay in Myotubes, α7 integrin LacZ reporter signal relative to DMSO ([4]; 10 uM): 0.9683; Burkin Assay in Myotubes, α7 integrin LacZ reporter signal relative to DMSO ([4]; 20 uM): 0.8871; Burkin Assay in Myotubes, α7 integrin LacZ reporter signal relative to DMSO ([4]; 40 uM): 0.7905
6 | Cc1nnc(-c2ccc(N3CCOCC3)c([N+](=O)[O-])c2)o1 [MLS001359861-01] | 0.9353 | 0.9376 | 0.9484 | 0.9324 | 0.8725 | 0.9113 | 0.8978 | 0.9533 | 0.9547 | 1.1230 | 0.9976 | 0.9412 | 0.9444 | 0.9184 | 0.9009 | 0.8064 | 0.9074 | 1.0330 | 1.095 | 1.184 | Burkin Assay in Myotubes, α7 integrin LacZ reporter signal relative to DMSO ([4]; 5 uM): 0.9088; Burkin Assay in Myotubes, α7 integrin LacZ reporter signal relative to DMSO ([4]; 10 uM): 0.876; Burkin Assay in Myotubes, α7 integrin LacZ reporter signal relative to DMSO ([4]; 20 uM): 1.0337; Burkin Assay in Myotubes, α7 integrin LacZ reporter signal relative to DMSO ([4]; 40 uM): 0.804
